# Test results as given in article PMC8041370, “Limonoids from Guarea guidonia and Cedrela odorata: Heat Shock Protein 90 (Hsp90) Modulator Properties of Chisomicine D” (Journal of Natural Products, 2021).
# Read-outs that look alike come from different tables or passages of the source.
# Columns and labels:
# Hsp90α [1] = target: T1, Hsp90α (Homo sapiens, UniProt P07900); test: Surface plasmon resonance binding to immobilized Hsp90α; set-up: purchased Stress-gen Bioreagents Corporation, Victoria, Canada SPP-776; conditions: SPR, 25 °C, mean ± standard deviation (n = 3)
# Method: 1 and 4 μM), and, for each sample, a complete binding study was carried out in triplicate. The experiments were performed at 25 °C, using a flow rate of 50 μL/min, with 60 s monitoring of association and 300 s monitoring of dissociation. Changes in mass, due to the binding response, were recorded as resonance units (RU). To obtain the dissociation constant (KD), these responses were fit to a 1:1 Langmuir binding model by nonlinear regression, using the BiaEvaluation sofware program (GE Healthcare). Simple interactions were suitably fitted to a single-site bimolecular interaction model (A + B = AB), yielding a single KD.
# [2] = test system: Hsp90α client protein levels in U937 cells; test: Western blot of Hsp90α, Hsp70 and Hsp90 client protein levels; format: cell-based, human
# Method: (§1) Whole cell lysates (U937) for immunoblot analysis were lysed with RIPA buffer (20 mM Tris-HCl pH 7.5, 150 mM NaCl, 1 mM EDTA, 1% NP-40, 1% sodium deoxycholate, 2.5 mM sodium pyrophosphate) supplemented with protease and phosphatase inhibitors. Protein concentration was determined by a Bradford solution for protein determination (Applichem) using BSA as a standard. Proteins were fractionated on SDS-PAGE, transferred into nitrocellulose membranes, and immunoblotted with the appropriate primary antibody. Signals were visualized with the appropriate horseradish peroxidase-conjugated secondary antibody and enhanced chemiluminescence (Amersham Biosciences-GE Healthcare, NY, USA). Densitometric analyses were carried out using the ImageJ software. Experiments were performed in duplicate.
# Proteins extracted from U937 cells following a 24 h treatment with 20 μM solution of compound 1 and from untreated cells (control) were fractionated on SDS-PAGE. The bands corresponding to the intact and truncated forms of Hsp90 (apparent molecular weight 90 and 70 kDa, respectively) were excised and subjected to a classical in-gel tryptic digestion. The resulting peptide mixtures were analyzed in positive ion full scan and dependent scan MS mode on a Q-Exactive Orbitrap mass spectrometer coupled with a nanoUltimate UHPLC system (Thermo Fisher Scientific, Waltham, MA, USA). Peptide separation was performed on a capillary EASY-Spray PepMap column (0.075 mm × 50 mm, 2 μm, Thermo Fisher Scientific) using aqueous 0.1% formic acid (A) and CH3CN containing 0.1% formic acid (B) as mobile phases and a linear gradient from 3% to 40% of B in 45 min and a 300 nL/min flow rate. Mass spectra were acquired over an m/z range from 400 to 1300. Dependent scan data were preliminarily analyzed to confirm the presence of Hsp90 in the digested gel-bands. To this aim, MS and MS/MS data underwent Mascot software (v2.5, Matrix Science, Boston, MA, USA) analysis using the nonredundant data bank UniprotKB/Swiss-Prot (release 2020_03). Parameter sets were as follows: trypsin cleavage; carbamidomethylation of cysteine as a fixed modification and methionine oxidation as a variable modification; a maximum of two missed cleavages; false discovery rate (FDR), calculated by searching the decoy database, 0.05. The data analysis of protein was carried out using the gene ontology tool in the UniProt Knowledgebase (UniProtKB; http://www.uniprot.org). Based on the achieved results, full mass chromatograms were analyzed using Xcalibur software by generating extracted ion spectra specific for the Hsp90 tryptic peptides completely covering the protein amino acidic sequence.
# U937 cells [3] = test: Cell cycle by propidium iodide flow cytometry and p-CDC2/CDC2 Western blot; format: cell-based, human
# Method: (§2) U937 cells were preliminarily synchronized by serum starvation and then seeded in six-well plates at a cell density of 8 × 10^5 cell/well. After 24 h, they were incubated for 48 h in the presence of compound 1 at IC50 concentration (20 μm), with phenethyl isothiocyanate and DMSO as a positive and negative control, respectively. Apoptosis was evaluated by an annexin V–FITC/PI apoptosis detection kit (Dojindo EU GmbH, Munich, Germany), and the cell cycle was evaluated by propidium iodide (PI) staining of permeabilized cells, according to the available protocol, and flow cytometry (BD FACSCalibur flow cytometer, Becton Dickinson, San Jose, CA, USA). Data from 5000 events per sample were collected. The percentages of the elements in the hypodiploid region and in G1, S, and G2 phases of the cell cycle and apoptosis data were calculated using FlowJo (BD Biosciences). Experiments were performed in technical triplicates and repeated two times with similar results.
# as §1
# Hsp90α [4] = target: T1, Hsp90α; test: Hsp90 ATPase activity; format: biochemical; conditions: 10 or 20 μM; data not shown
# [5] = test system: U937 (human myeloid leukemia) cell line; test: MTT cell viability, U937; format: cell-based; conditions: U-937, 48 h
# Method: (§3) HeLa (cervical carcinoma) and U937 (pro-monocytic, human myeloid leukemia) cell lines were purchased from the American Type Cell Culture (ATCC) (Rockville, MD, USA). HeLa cells were maintained in DMEM, and U937 were cultured in RPMI 1640, both supplemented with 10% FBS, 100 mg/L streptomycin, and penicillin 100 IU/mL at 37 °C in a humidified atmosphere of 5% CO2. To ensure logarithmic growth, cells were subcultured every 2 days. Stock solutions of compound in DMSO were stored in the dark at 4 °C. Appropriate dilutions were prepared in culture medium immediately prior to use. […] PBMCs were isolated from buffy coats of healthy donors (kindly provided by the Blood Center of the Hospital of Battipaglia, Italy) by using standard Ficoll-Hypaque gradients. PBMCs were incubated with DMSO or compound 1 at 30 μM for 48 h. […] The number of viable cells was quantified by the MTT [3-(4,5-dimethylthiazol-2-yl)-2,5-diphenyl tetrazolium bromide] assay. Absorption at 550 nm for each well was assessed using Multiskan GO (Thermo Scientific). Half-maximal inhibitory concentration (IC50) values were calculated using GraphPad Prism 8. Experiments were performed in technical triplicates and repeated two times with similar results.
# U937 cells [6] = test: Apoptosis by annexin V-FITC/PI flow cytometry and caspase 3 Western blot; format: cell-based, human; conditions: U937, 20 μM
# Method: as §2
# Whole cell lysates (U937) for immunoblot analysis were lysed with RIPA buffer (20 mM Tris-HCl pH 7.5, 150 mM NaCl, 1 mM EDTA, 1% NP-40, 1% sodium deoxycholate, 2.5 mM sodium pyrophosphate) supplemented with protease and phosphatase inhibitors. Protein concentration was determined by a Bradford solution for protein determination (Applichem) using BSA as a standard. […]
# [7] = test system: HeLa (epithelial carcinoma) cells; test: MTT cell viability, HeLa; format: cell-based; conditions: Homo sapiens, 48 h
# Method: as §3
# [8] = test system: PBMC (nontumor human peripheral blood mononuclear cell line); test: Cytotoxicity on PBMC; format: cell-based; conditions: 30 μM, 48 h
# Method: HeLa (cervical carcinoma) and U937 (pro-monocytic, human myeloid leukemia) cell lines were purchased from the American Type Cell Culture (ATCC) (Rockville, MD, USA). HeLa cells were maintained in DMEM, and U937 were cultured in RPMI 1640, both supplemented with 10% FBS, 100 mg/L streptomycin, and penicillin 100 IU/mL at 37 °C in a humidified atmosphere of 5% CO2. To ensure logarithmic growth, cells were subcultured every 2 days. Stock solutions of compound in DMSO were stored in the dark at 4 °C. Appropriate dilutions were prepared in culture medium immediately prior to use. […] PBMCs were isolated from buffy coats of healthy donors (kindly provided by the Blood Center of the Hospital of Battipaglia, Italy) by using standard Ficoll-Hypaque gradients. PBMCs were incubated with DMSO or compound 1 at 30 μM for 48 h.
# [9] = U937, 20 μM, 48 h, PI staining, Figure 2B
smiles,measurement,setting,value
"CC(=O)O[C@H]1C[C@@]2(C)[C@H](c3ccoc3)OC(=O)[C@H]3O[C@]32[C@@]2(C)[C@H]1[C@@]1(C)[C@@H](OC(C)=O)CC(=O)OC(C)(C)[C@@H]1C[C@H]2OC(C)=O [Compound 10, 7α,11β-diacetoxydihydronomilin]",KD,Hsp90α [1],no binding
"COC(=O)C[C@H]1C(C)(C)[C@H](O)[C@@H]2CC3=C4CC(=O)O[C@@H](c5ccoc5)[C@]4(C)CC[C@@H]3[C@@]1(C)C2=O [Compound 14, proceranolide]",KD,Hsp90α [1],no binding
"CC(=O)O[C@H]1CC(=O)OC(C)(C)[C@@H]2C[C@@H](OC(C)=O)[C@@]3(C)C4=CC[C@@H](C(O)(CO)CCO)[C@]4(C)CC[C@@H]3[C@@]12C (stereo partly drawn) [Compound 7, cedrelosin F]",KD,Hsp90α [1],no binding
"CC(=O)O[C@H]1C[C@@]2(C)[C@H](c3ccoc3)OC(=O)[C@H]3O[C@]32[C@]2(C)[C@H](O)C[C@H]3C(C)(C)O[C@H]4CC(=O)OC[C@]43[C@@H]12 [Compound 8, 11β-acetoxylimonol]",Kd,Hsp90α [1],0.0248 ± 0.0023 µM
"C=C(C)C(=O)O[C@@H]1/C=C\[C@]2(O)C3=CC(=O)O[C@@H](c4ccoc4)[C@]3(C)CC[C@]2(O)[C@]2(C)C(=O)C[C@@]1(C)[C@@H]2CC(=O)OC [Compound 2, chisomicine E]",KD,Hsp90α [1],no binding
"COC(=O)[C@@H](OC(C)=O)[C@H]1C(C)(C)[C@H](O)[C@@H]2CC3=C4CC(=O)O[C@@H](c5ccoc5)[C@]4(C)CC[C@@H]3[C@@]1(C)C2=O [Compound 13, 6-O-acetylswietenolide]",Kd,Hsp90α [1],0.0255 ± 0.0034 µM
"COC(=O)C[C@H]1C(C)(C)[C@H](OC(=O)C(O)C(C)C)[C@@H]2C=C3C4CC(=O)O[C@@H](c5ccoc5)[C@]4(C)CC[C@@H]3[C@@]1(C)C2=O (stereo partly drawn) [Compound 4, 3-(2′-hydroxyisovaleroyl)khasenegasin I]",KD,Hsp90α [1],no binding
"C/C=C(\C)C(=O)O[C@@H]1/C=C\C2=C3CC(=O)O[C@@H](c4ccoc4)[C@]3(C)CC[C@]2(O)[C@]2(C)C(=O)C[C@@]1(C)[C@@H]2CC(=O)OC (relative stereo) [Compound 3, (9R*)-hydroxychisomicine A]",KD,Hsp90α [1],no binding
"CC(=O)O[C@H]1C[C@@]2(C)[C@H](C3=C[C@@H](O)OC3=O)OC(=O)[C@H]3O[C@]32[C@@]2(C)[C@H]1[C@@]13COC(=O)C[C@@H]1OC(C)(C)[C@@H]3C[C@H]2OC(C)=O [Compound 9, 11β-acetoxycedrelosin B]",KD,Hsp90α [1],low affinity
same,Kd,Hsp90α [1],0.183 ± 0.0189 µM
"C/C=C(\C)C(=O)O[C@@H]1/C=C\[C@]2(O)C3=CC(=O)O[C@@H](c4ccoc4)[C@]3(C)CC[C@]2(O)[C@]2(C)C(=O)C[C@@]1(C)[C@@H]2CC(=O)OC (relative stereo) [Compound 1, 8-hydro-(8S*,9S*)-dihydroxy-14,15-en-chisomicine A]",Hsp70 cellular levels,"[2]; U937, 30 μM, 48 h",affected
same,ERK concentration,"[2]; U937, 10, 20 and 30 μM, 48 h",no significant variation
same,Hsp90 amount,"[2]; U937, 10, 20 and 30 μM, 48 h",down-regulated in a dose-dependent manner
same,p-ERK2 level,"[2]; U937, 10, 20 and 30 μM, 48 h",strong depletion
same,Hsp90 cleavage,"[2]; U937, 20 and 30 μM, 48 h","Hsp90 cleaved form, with an apparent molecular weight of 70 kDa, was observed"
same,level of both isoforms of JNK,"[2]; U937, 48 h, regardless of phosphorylation",significantly reduced
same,G1 phase,U937 cells [3]; [9],"53,1"
same,G2 phase,U937 cells [3]; [9],"16,7"
same,S phase,U937 cells [3]; [9],"12,3"
same,effect on cell cycle,"U937 cells [3]; U937, 48 h (1 at 20 μM)",G2 phase cell cycle arrest
same,p-CDC2/CDC2 ratio,"U937 cells [3]; U937, Western blot, 10 and 20 μM",increase
same,inhibition of Hsp90 ATPase activity,Hsp90α [4],did not affect its enzymatic efficiency
same,Kd,Hsp90α [1],0.0182 ± 0.0019 µM
same,IC50,[5]; read-out: IC50 growth inhibition U937,20 ± 3 µM
same,increase of late apoptosis compared to the negative control,"U937 cells [6]; 48 h, annexin V/FITC",about 15%
same,pro-caspase 3 cleavage,U937 cells [6]; Western blot,induced the cleavage of pro-caspase 3
same,IC50,[7],> 50 µM
same,cytotoxic activity on PBMC,[8],did not show any cytotoxic activity
"CC(=O)O[C@H]1C[C@@]2(C)[C@H](C3=CC(=O)O[C@@H]3O)OC(=O)[C@H]3O[C@]32[C@@]2(C)[C@H]1[C@@]1(C)C=CC(=O)OC(C)(C)[C@@H]1C[C@H]2OC(C)=O [Compound 5, 7-deoxo-7α,11β-diacetoxykihadanin A]",KD,Hsp90α [1],no binding
"CC(=O)O[C@H]1C[C@@]2(C)[C@H](C3=CC(=O)O[C@@H]3O)OC(=O)[C@H]3O[C@]32[C@@]2(C)[C@H]1[C@@]1(C)[C@@H](OC(C)=O)CC(=O)OC(C)(C)[C@@H]1C[C@H]2OC(C)=O [Compound 6, 1,2-dihydro-7-deoxo-1α,7α,11β-triacetoxykihadanin A]",KD,Hsp90α [1],no binding
"CC(=O)O[C@H]1C[C@@]2(C)[C@H](c3ccoc3)OC(=O)[C@H]3O[C@]32[C@@]2(C)[C@H]1[C@@]1(C)C=CC(=O)OC(C)(C)[C@@H]1C[C@H]2OC(C)=O [Compound 11, 11β-acetoxybacunyl acetate]",Kd,Hsp90α [1],0.0253 ± 0.0018 µM
"C[C@@H]1C[C@H]2O[C@@H]2/C=C\C=C\C(=O)Cc2c(Cl)c(O)cc(O)c2C(=O)O1 [radicicol, reference compound]",IC50,"[5]; positive control for HeLa and U937, cell line not specified, read-out: IC50 of positive control",0.25 µM
"COC(=O)C[C@H](OC(C)=O)[C@]1(C)[C@H]2[C@@H](OC(C)=O)C[C@@]3(C)[C@H](c4ccoc4)OC(=O)[C@H]4O[C@]43[C@]2(C)[C@H](OC(C)=O)C[C@H]1C(C)(C)O [Compound 12, odoralide]",KD,Hsp90α [1],no binding
